Each structure is given as a SMILES string.

The first experiment relates to Bmi-1 protein. The experiment can be described thus: Sandwich ELISA Assay (Bmi-1 protein level in HT-1080 cells after compound treatment). The class given is cell-based. The conditions noted are these: Table 1, Bmi-1 sandwich ELISA, read-out: ELISA EC50 value for Bmi-1 protein. The procedure, abridged:
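Sandwich ELISA quantified Bmi-1 protein against recombinant standard (125–8000 pg/mL), with lysates captured overnight at 4 °C and signal by HRP/TMB at 450 nm (570 nm reference). Lysates came from HT-1080 cells incubated 40–48 h with test compounds in 0.5% DMSO.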
For `N#Cc1cc(Nc2ccc(OC(F)(F)F)cc2)nc(-c2c(C(F)(F)F)nc3n2CCCC3)c1` [Cpd 238, 2-{[4-(trifluoromethoxy)phenyl]amino}-6-[2-(trifluoromethyl)-5,6,7,8-tetrahydroimidazo[1,2-a]pyridin-3-yl]pyridine-4-carbonitrile], the half-maximal effective concentration (EC50) was in the range of 100 to 3000 nM.

Turning to `CCc1nc2ncc(Nc3ccc(OC(F)F)c(F)c3)cc2n1-c1cncc(Nc2ccc(OC(F)F)c(F)c2)n1` [compound 550, N-[4-(difluoromethoxy)-3-fluorophenyl]-1-(6-{[4-(difluoromethoxy)-3-fluorophenyl]amino}pyrazin-2-yl)-2-ethyl-1H-imidazo[4,5-b]pyridin-6-amine], the EC50 fell in the range of 100 to 3000 nM.

Turning to `Cc1nc2cc(F)c(F)cc2n1-c1cc(C#N)cc(Nc2ccc(Cl)cc2)n1` [compound 600, 2-[(4-chlorophenyl)amino]-6-(5,6-difluoro-2-methyl-1H-benzimidazol-1-yl)pyridine-4-carbonitrile], the EC50 lay in the range of 10 to 100 nM.

In the case of `FC(F)Oc1ccc(Nc2cncc(-c3c(C(F)(F)F)nn4ccccc34)n2)cc1` [compound 72, N-[4-(difluoromethoxy)phenyl]-6-[2-(trifluoromethyl)pyrazolo[1,5-a]pyridin-3-yl]pyrazin-2-amine], the EC50 is 1 to 10 nM.

As for `N#Cc1cc(Nc2ccc(OC(F)F)cc2)nc(-c2c(CO)nc3ccc(F)cn23)c1` [compound 393, 2-{[4-(difluoromethoxy)phenyl]amino}-6-[6-fluoro-2-(hydroxymethyl)imidazo[1,2-a]pyridin-3-yl]pyridine-4-carbonitrile], the concentration giving a half-maximal response (EC50) lay within 10 to 100 nM.

As for `Cc1cc2ccccc2n1-c1cncc(Nc2ccc(OC(F)F)cc2)n1` [compound 163, N-[4-(difluoromethoxy)phenyl]-6-(2-methyl-1H-indol-1-yl)pyrazin-2-amine], the EC50 was in the range of 100 to 3000 nM.

Take `COc1ccc2nc(C(F)(F)F)c(-c3cccc(Nc4ccc(C(F)(F)F)cc4)n3)n2c1` [compound 102, 6-[6-methoxy-2-(trifluoromethyl)imidazo[1,2-a]pyridin-3-yl]-N-[4-(trifluoromethyl)phenyl]pyridin-2-amine]: the EC50 lay within 10 to 100 nM.

For `Cc1nc2ccccc2n1-c1cncc(Nc2cc(F)c(C(F)(F)F)c(F)c2)n1` [compound 645, N-[3,5-difluoro-4-(trifluoromethyl)phenyl]-6-(2-methyl-1H-benzimidazol-1-yl)pyrazin-2-amine], the EC50 lay in the range of 10 to 100 nM.

Take `Cc1nc2cc(F)c(F)cc2n1-c1cncc(Nc2ccc(OC(F)F)cc2)n1` [compound 199, N-[4-(difluoromethoxy)phenyl]-6-(5,6-difluoro-2-methyl-1H-benzimidazol-1-yl)pyrazin-2-amine]: the EC50 lay within 1 to 10 nM.

Take `OCCNc1cc(Nc2ccc(C(F)(F)F)cc2)nc(-c2c(C(F)(F)F)nc3ccccn23)c1` [compound 160, 2-[(2-[2-(trifluoromethyl)imidazo[1,2-a]pyridin-3-yl]-6-{[4-(trifluoromethyl)phenyl]amino}pyridin-4-yl)amino]ethanol]: the EC50 lay in the range of 10 to 100 nM.

Consider `Cc1nc2ccc(F)cc2n1-c1cccc(Nc2ccc(C(F)(F)F)cc2)n1` [Cpd 607, 6-(6-fluoro-2-methyl-1H-benzimidazol-1-yl)-N-[4-(trifluoromethyl)phenyl]pyridin-2-amine], for which the 50% effective concentration (EC50) was 10 to 100 nM.

`CCc1nc2cc(F)c(F)cc2n1-c1cc(N)c(F)c(Nc2ccc(C(F)(F)F)cc2)n1` [compound 509, 6-(2-ethyl-5,6-difluoro-1H-benzimidazol-1-yl)-3-fluoro-N^2-[4-(trifluoromethyl)phenyl]pyridine-2,4-diamine]: the EC50 is 10 to 100 nM.

With `Cc1nc2cc(F)c(F)cc2n1-c1cncc(Nc2ccc(C(F)(F)F)cc2)n1` [compound 683, 6-(5,6-difluoro-2-methyl-1H-benzimidazol-1-yl)-N-[4-(trifluoromethyl)phenyl]pyrazin-2-amine], the EC50 fell in the range of 10 to 100 nM.

Take `CCc1nc2ncc(F)cc2n1-c1cncc(Nc2ccc(C(F)(F)F)cc2)n1` [compound 271, 6-(2-ethyl-6-fluoro-1H-imidazo[4,5-b]pyridin-1-yl)-N-[4-(trifluoromethyl)phenyl]pyrazin-2-amine]: the EC50 was 1 to 10 nM.

Take `COc1ccc(Nc2cncc(-c3c(C)nc4ccc(F)cn34)n2)cc1` [compound 592, 6-(6-fluoro-2-methylimidazo[1,2-a]pyridin-3-yl)-N-(4-methoxyphenyl)pyrazin-2-amine]: the EC50 is < 1 nM.

Take `Fc1cc(Nc2cncc(-c3c(C(F)(F)F)nc4ccccn34)n2)ccc1OC(F)F` [compound 323, N-[4-(difluoromethoxy)-3-fluorophenyl]-6-[2(trifluoromethyl)imidazo[1,2-a]pyridin-3-yl]pyrazin-2-amine]: the concentration giving a half-maximal response (EC50) lay in the range of 1 to 10 nM.

`COc1ccc(Nc2cncc(-n3c(C)nc4cc(F)c(F)cc43)n2)cc1` [compound 573, 6-(5,6-difluoro-2-methyl-1H-benzimidazol-1-yl)-N-(4-methoxyphenyl)pyrazin-2-amine]: the EC50 lay within 100 to 3000 nM.

Consider `CSc1nc2ccccc2n1-c1cncc(Nc2ccc(C(F)(F)F)cc2)n1` [compound 54, 6-[2-(methylsulfanyl)-1H-benzimidazol-1-yl]-N-[4-(trifluoromethyl)phenyl]pyrazin-2-amine], for which the concentration for a half-maximal effect (EC50) lay in the range of 10 to 100 nM.

For `Cc1nc2ccc(F)cc2n1-c1cncc(Nc2ccc(Cl)cc2)n1` [compound 554, N-(4-chlorophenyl)-6-(6-fluoro-2-methyl-1H-benzimidazol-1-yl)pyrazin-2-amine], the EC50 is 10 to 100 nM.

With `CCOc1ccc(Nc2cncc(-n3c(C)nc4ccccc43)n2)cc1` [compound 664, N-(4-ethoxyphenyl)-6-(2-methyl-1H-benzimidazol-1-yl)pyrazin-2-amine], the EC50 lay within 100 to 3000 nM.

As for `CCc1nn2ccccc2c1-c1cncc(Nc2ccc(Cl)cc2)n1` [compound 629, N-(4-chlorophenyl)-6-(2-ethylpyrazolo[1,5-a]pyridin-3-yl)pyrazin-2-amine], the EC50 is 1 to 10 nM.

For `Cc1nc2ccc(NCc3ccccc3)cc2n1-c1cncc(Nc2ccc(C(F)(F)F)cc2)n1` [compound 275, N-benzyl-2-methyl-1-(6-{[4-(trifluoromethyl)phenyl]amino}pyrazin-2-yl)-1H-benzimidazol-6-amine], the EC50 lay within 10 to 100 nM.

On to `Cc1nc2c(F)cccc2n1-c1cncc(Nc2ccc(C(F)(F)F)cc2)n1` [compound 339, 6-(4-fluoro-2-methyl-1H-benzimidazol-1-yl)-N-[4-(trifluoromethyl)phenyl]pyrazin-2-amine], for which the EC50 fell in the range of 10 to 100 nM.

In the case of `N#Cc1cc(Nc2ccc(OC(F)(F)F)cc2)nc(-c2c(C(F)(F)F)nc3ccccn23)c1` [compound 218, 2-{[4-(trifluoromethoxy)phenyl]amino}-6-[2-(trifluoromethyl)imidazo[1,2-a]pyridin-3-yl]pyridine-4-carbonitrile], the EC50 lay within 10 to 100 nM.

Turning to `Cc1cc2nc(C)n(-c3cc(C#N)cc(Nc4ccc(C(F)(F)F)cc4)n3)c2cc1C` [Cpd 389, 2-{[4-(trifluoromethyl)phenyl]amino}-6-(2,5,6-trimethyl-1H-benzimidazol-1-yl)pyridine-4-carbonitrile], the EC50 fell in the range of 100 to 3000 nM.

As to `COc1ccc2nc(C(F)(F)F)c(-c3cncc(Nc4ccc(Br)cc4)n3)n2c1` [Cpd 680, N-(4-bromophenyl)-6-[6-methoxy-2-(trifluoromethyl)imidazo[1,2-a]pyridin-3-yl]pyrazin-2-amine], the 50% effective concentration (EC50) was 10 to 100 nM.

With `Cc1nc2ncccc2n1-c1cc(N)cc(Nc2ccc(C(F)(F)F)cc2)n1` [compound 292, 6-(2-methyl-1H-imidazo[4,5-b]pyridin-1-yl)-N^2-[4-(trifluoromethyl)phenyl]pyridine-2,4-diamine], the EC50 is 1 to 10 nM.

With `Cc1cc2ccccc2n1-c1cncc(Nc2ccc(C(F)(F)F)cc2)n1` [compound 162], the EC50 was 100 to 3000 nM.

Regarding `Cc1nc2ccccc2n1-c1cccc(Nc2ccc(C(F)(F)F)cc2)n1` [Cpd 37, 6-(2-methyl-1H-benzimidazol-1-yl)-N-[4-(trifluoromethyl)phenyl]pyridin-2-amine], the EC50 was in the range of 10 to 100 nM.

For the compound `Cc1nc(Br)c(C)n1-c1cncc(Nc2ccc(C(F)(F)F)cc2)n1` [compound 341, 6-(4-bromo-2,5-dimethyl-1H-imidazol-1-yl)-N-[4-(trifluoromethyl)phenyl]pyrazin-2-amine], the concentration for a half-maximal effect (EC50) was 100 to 3000 nM.

As for `Cc1nc2c(F)cccc2n1-c1cc(C#N)cc(Nc2ccc(C(F)(F)F)cc2)n1` [Cpd 435, 2-(4-fluoro-2-methyl-1H-benzimidazol-1-yl)-6-{[4-(trifluoromethyl)phenyl]amino}pyridine-4-carbonitrile], the EC50 lay in the range of 10 to 100 nM.

On to `O=[N+]([O-])c1cc(Nc2ccc(C(F)(F)F)cc2)nc(-c2c(C(F)(F)F)nc3ccccn23)c1` [compound 158, 4-nitro-6-[2-(trifluoromethyl)imidazo[1,2-a]pyridin-3-yl]-N-[4-(trifluoromethyl)phenyl]pyridin-2-amine], for which the half-maximal effective concentration (EC50) lay within 10 to 100 nM.

For `CCc1nc2ncc(Cl)cc2n1-c1cc(C#N)cc(Nc2ccc(OC(F)F)cc2)n1` [compound 451, 2-(6-chloro-2-ethyl-1H-imidazo[4,5-b]pyridin-1-yl)-6-{[4-(difluoromethoxy)phenyl]amino}pyridine-4-carbonitrile], the EC50 is 1 to 10 nM.

Consider `CCc1nc(C)c(-c2cncc(Nc3ccc(C(F)(F)F)cc3)n2)n1Cc1ccccc1` [compound 126], for which the EC50 is 100 to 3000 nM.

The experiment is the same for the next values; noted with them: read-out: ELISA EC50 value for Bmi-1 protein, Table 1, Bmi-1 sandwich ELISA.
Regarding `COc1ccc(Nc2ccc(N)c(-c3c(C(F)(F)F)nc4ccccn34)n2)cc1` [Cpd 282, N^2-(4-methoxyphenyl)-6-[2-(trifluoromethyl)imidazo[1,2-a]pyridin-3-yl]pyridine-2,5-diamine], the EC50 lay in the range of 100 to 3000 nM.

Consider `FC(F)(F)c1ccc(Nc2cncc(-c3c(C(F)(F)F)nc4n3CCCC4)n2)cc1` [Cpd 232, N-[4-(trifluoromethyl)phenyl]-6-[2-(trifluoromethyl)-5,6,7,8-tetrahydroimidazo[1,2-a]pyridin-3-yl]pyrazin-2-amine], for which the EC50 lay within 1 to 10 nM.

The EC50 is the midpoint of the concentration-response curve.

Source of the values: US10584115B2, “Substituted pyridine and pyrazine BMI-1 inhibitors” (PTC Therapeutics, Inc., priority 2013, dated 2020).
